Measurements taken from ChEMBL document CHEMBL3745645, “Synthesis, in vitro antitumor activity, dihydrofolate reductase inhibition, DNA intercalation and structure-activity relationship studies of 1,3,5-triazine analogues” (Bioorg Med Chem Lett, 2016).
Active and inactive are the calls of the source. The calls are words filed in the database; no cut-off is given here.

What was measured:
Assay type in all cases: functional
A498 = experiment: Cytotoxicity against human A498 cells at 10 uM after 48 hrs by SRB assay; settings: A498, 48 h, read-out: GI
[1] = Cytotoxicity against human HCC2998 cells at 10 uM after 48 hrs by SRB assay; settings: HCC 2998, 48 h, read-out: GI
HCT-15 = experiment: Cytotoxicity against human HCT15 cells at 10 uM after 48 hrs by SRB assay
MDA-MB-468 = experiment: Cytotoxicity against human MDA-MB-468 cells at 10 uM after 48 hrs by SRB assay; settings: MDA-MB-468, 48 h, read-out: GI
[2] = Cytotoxicity against human DU145 cells at 10 uM after 48 hrs by SRB assay; settings: DU-145, 48 h, read-out: GI
[3] = Cytotoxicity against human SW620 cells at 10 uM after 48 hrs by SRB assay; settings: SW-620, 48 h, read-out: GI
[4] = Cytotoxicity against human IGROV1 cells at 10 uM after 48 hrs by SRB assay; settings: IGROV-1, 48 h, read-out: GI
A549 = experiment: Cytotoxicity against human A549 cells at 10 uM after 48 hrs by SRB assay; settings: A549, 48 h, read-out: GI
Hs-578T = experiment: Cytotoxicity against human Hs 578T cells at 10 uM after 48 hrs by SRB assay
[5] = Cytotoxicity against human OVCAR3 cells at 10 uM after 48 hrs by SRB assay; settings: OVCAR-3, 48 h, read-out: GI
[6] = Cytotoxicity against human OVCAR4 cells at 10 uM after 48 hrs by SRB assay; settings: OVCAR-4, 48 h, read-out: GI
SK-MEL-5 = experiment: Cytotoxicity against human SK-MEL-5 cells at 10 uM after 48 hrs by SRB assay; settings: SK-MEL-5, 48 h, read-out: GI
TK-10 = experiment: Cytotoxicity against human TK10 cells at 10 uM after 48 hrs by SRB assay
HL-60(TB) = experiment: Cytotoxicity against human HL-60(TB) cells at 10 uM after 48 hrs by SRB assay
SN12C = experiment: Cytotoxicity against human SN12C cells at 10 uM after 48 hrs by SRB assay; settings: read-out: GI
MDA-MB-435 = experiment: Cytotoxicity against human MDA-MB-435 cells at 10 uM after 48 hrs by SRB assay; settings: MDA-MB-435, 48 h, read-out: GI
K562 = experiment: Cytotoxicity against human K562 cells at 10 uM after 48 hrs by SRB assay
OVCAR-5 = experiment: Cytotoxicity against human OVCAR5 cells at 10 uM after 48 hrs by SRB assay
NCI-H522 = experiment: Cytotoxicity against human NCI-H522 cells at 10 uM after 48 hrs by SRB assay; settings: NCI-H522, 48 h, read-out: GI
RPMI-8226 = experiment: Cytotoxicity against human RPMI8226 cells at 10 uM after 48 hrs by SRB assay
NCI-H460 = experiment: Cytotoxicity against human NCI-H460 cells at 10 uM after 48 hrs by SRB assay; settings: NCI-H460, 48 h, read-out: GI
[7] = Cytotoxicity against human RXF393 cells at 10 uM after 48 hrs by SRB assay; settings: RXF 393, 48 h, read-out: GI
[8] = Cytotoxicity against human SKOV3 cells at 10 uM after 48 hrs by SRB assay; settings: SK-OV-3, 48 h, read-out: GI
[9] = Cytotoxicity against human UACC257 cells at 10 uM after 48 hrs by SRB assay; settings: UACC-257, 48 h, read-out: GI
[10] = Cytotoxicity against human UO31 cells at 10 uM after 48 hrs by SRB assay; settings: UO-31, 48 h, read-out: GI
T47D = experiment: Cytotoxicity against human T47D cells at 10 uM after 48 hrs by SRB assay; settings: read-out: GI
KM12 = experiment: Cytotoxicity against human KM12 cells at 10 uM after 48 hrs by SRB assay; settings: KM12, 48 h, read-out: GI
[11] = Cytotoxicity against human HOP92 cells at 10 uM after 48 hrs by SRB assay; settings: HOP-92, 48 h, read-out: GI
SK-MEL-2 = experiment: Cytotoxicity against human SK-MEL-2 cells at 10 uM after 48 hrs by SRB assay; settings: SK-MEL-2, 48 h, read-out: GI
[12] = Cytotoxicity against human COLO205 cells at 10 uM after 48 hrs by SRB assay; settings: COLO 205, 48 h, read-out: GI
786-0 = experiment: Cytotoxicity against human 786-0 cells at 10 uM after 48 hrs by SRB assay; settings: 786-0, 48 h, read-out: GI
CCRF-CEM = experiment: Cytotoxicity against human CCRF-CEM cells at 10 uM after 48 hrs by SRB assay
[13] = Cytotoxicity against human BT549 cells at 10 uM after 48 hrs by SRB assay; settings: BT-549, 48 h, read-out: GI
[14] = Cytotoxicity against human Caki1 cells at 10 uM after 48 hrs by SRB assay; settings: CAKI-1, 48 h, read-out: GI
[15] = Cytotoxicity against human SNB19 cells at 10 uM after 48 hrs by SRB assay; settings: SNB-19, 48 h, read-out: GI
[16] = Cytotoxicity against human SF539 cells at 10 uM after 48 hrs by SRB assay; settings: SF-539, 48 h, read-out: GI
MOLT-4 = experiment: Cytotoxicity against human MOLT4 cells at 10 uM after 48 hrs by SRB assay
[17] = Cytotoxicity against human HOP62 cells at 10 uM after 48 hrs by SRB assay; settings: HOP-62, 48 h, read-out: GI
[18] = Cytotoxicity against human SNB75 cells at 10 uM after 48 hrs by SRB assay; settings: SNB-75, 48 h, read-out: GI
[19] = Cytotoxicity against human OVCAR8 cells at 10 uM after 48 hrs by SRB assay; settings: OVCAR-8, 48 h, read-out: GI
ACHN = experiment: Cytotoxicity against human ACHN cells at 10 uM after 48 hrs by SRB assay; settings: read-out: GI
Malme-3M = experiment: Cytotoxicity against human MALME-3M cells at 10 uM after 48 hrs by SRB assay; settings: read-out: GI
HT-29 = experiment: Cytotoxicity against human HT-29 cells at 10 uM after 48 hrs by SRB assay; settings: HT-29, 48 h, read-out: GI
SR = experiment: Cytotoxicity against human SR cells at 10 uM after 48 hrs by SRB assay
MCF7 = experiment: Cytotoxicity against human MCF7 cells at 10 uM after 48 hrs by SRB assay; settings: MCF7, 48 h, read-out: GI
NCI/ADR-RES = experiment: Cytotoxicity against human NCI-ADR-RES cells at 10 uM after 48 hrs by SRB assay
NCI-H322M = experiment: Cytotoxicity against human NCI-H322M cells at 10 uM after 48 hrs by SRB assay; settings: read-out: GI
M14 = experiment: Cytotoxicity against human M14 cells at 10 uM after 48 hrs by SRB assay; settings: M14, 48 h, read-out: GI
SK-MEL-28 = experiment: Cytotoxicity against human SK-MEL-28 cells at 10 uM after 48 hrs by SRB assay
[20] = Cytotoxicity against human LOXIMVI cells at 10 uM after 48 hrs by SRB assay; settings: LOX IMVI, read-out: GI
U-251 = experiment: Cytotoxicity against human U251 cells at 10 uM after 48 hrs by SRB assay; settings: U-251, 48 h, read-out: GI
MDA-MB-231 = experiment: Cytotoxicity against human MDA-MB-231 cells at 10 uM after 48 hrs by SRB assay; settings: MDA-MB-231, 48 h, read-out: GI
NCI-H226 = experiment: Cytotoxicity against human NCI-H226 cells at 10 uM after 48 hrs by SRB assay; settings: NCI-H226, 48 h, read-out: GI
[21] = Cytotoxicity against human SF295 cells at 10 uM after 48 hrs by SRB assay; settings: SF-295, 48 h, read-out: GI
[22] = Cytotoxicity against human HCT116 cells at 10 uM after 48 hrs by SRB assay; settings: HCT-116, 48 h, read-out: GI
[23] = Cytotoxicity against human SF268 cells at 10 uM after 48 hrs by SRB assay; settings: SF-268, 48 h, read-out: GI

## Cc1nc2cc(Nc3nc(NCCN)nc(Nc4ccc(F)cc4)n3)ccc2n1Cc1ccccc1
A498
  inhibition of growth at 10 µM: 32.6%
[1]
  inhibition of growth at 10 µM: 29.4%
HCT-15
  growth inhibition (GI): inactive
MDA-MB-468
  inhibition of growth at 10 µM: 26.8%
[2]
  inhibition of growth at 10 µM: 17.8%
[3]
  inhibition of growth at 10 µM: 26.1%
[4]
  inhibition of growth at 10 µM: 18.6%
A549
  inhibition of growth at 10 µM: 16.1%
Hs-578T
  growth inhibition (GI): inactive
[5]
  inhibition of growth at 10 µM: 13.3%
[6]
  inhibition of growth at 10 µM: 23%
SK-MEL-5
  inhibition of growth at 10 µM: 13.4%
TK-10
  growth inhibition (GI): inactive
HL-60(TB)
  growth inhibition (GI): Active
SN12C
  inhibition of growth at 10 µM: 14.9%
MDA-MB-435
  inhibition of growth at 10 µM: 19.6%
K562
  growth inhibition (GI): Active
OVCAR-5
  growth inhibition (GI): inactive
NCI-H522
  inhibition of growth at 10 µM: 14.1%
RPMI-8226
  growth inhibition (GI): Active
NCI-H460
  inhibition of growth at 10 µM: 17.4%
[7]
  inhibition of growth at 10 µM: 28%
[8]
  inhibition of growth at 10 µM: 4.49%
[9]
  inhibition of growth at 10 µM: 9.53%
[10]
  inhibition of growth at 10 µM: 10.7%
T47D
  inhibition of growth at 10 µM: 30.9%
KM12
  inhibition of growth at 10 µM: 29.4%
[11]
  inhibition of growth at 10 µM: 51.5%
SK-MEL-2
  inhibition of growth at 10 µM: 9.54%
[12]
  inhibition of growth at 10 µM: 18%
786-0
  inhibition of growth at 10 µM: 17.6%
CCRF-CEM
  growth inhibition (GI): Active
[13]
  inhibition of growth at 10 µM: 9.96%
[14]
  inhibition of growth at 10 µM: 5.83%
[15]
  inhibition of growth at 10 µM: 8.37%
[16]
  inhibition of growth at 10 µM: 3.98%
MOLT-4
  growth inhibition (GI): Active
[17]
  inhibition of growth at 10 µM: 20.9%
[18]
  inhibition of growth at 10 µM: 15.8%
[19]
  inhibition of growth at 10 µM: 10.9%
ACHN
  inhibition of growth at 10 µM: 3.22%
Malme-3M
  inhibition of growth at 10 µM: 6.46%
HT-29
  inhibition of growth at 10 µM: 64.9%
SR
  growth inhibition (GI): Active
MCF7
  inhibition of growth at 10 µM: 31.2%
NCI/ADR-RES
  growth inhibition (GI): inactive
NCI-H322M
  inhibition of growth at 10 µM: 0.32%
M14
  inhibition of growth at 10 µM: 18.4%
SK-MEL-28
  growth inhibition (GI): inactive
[20]
  inhibition of growth at 10 µM: 41.8%
U-251
  inhibition of growth at 10 µM: 22.6%
MDA-MB-231
  inhibition of growth at 10 µM: 39.6%
NCI-H226
  inhibition of growth at 10 µM: 4.61%
[21]
  inhibition of growth at 10 µM: 20.2%
[22]
  inhibition of growth at 10 µM: 39.7%
[23]
  inhibition of growth at 10 µM: 28.2%
